In US7700584B2 (Hangzhou Minsheng Pharmaceuticals Co., Ltd., priority 2004, dated 2010):
Where a name gives a salt, the structure may show the parent alone. Read-outs that look alike come from different tables or passages of the source.

Tests used:
[1] = test system: Hela human cervical carcinoma; experiment: In vitro inhibition rate to tumor cells (MTT), Hela; format: cell-based; conditions: for inhibition at 50 µg/mL: Homo sapiens, HeLa
[2] = target: T1, HIV-1 integrase (HIV-1 IN) (Human immunodeficiency virus type 1 group M subtype B, UniProt P04585); experiment: Screening for the activity against HIV-1 integrase; format: biochemical; conditions: for inhibition at 100 µg/mL: read-out: IC50
T1 construct: a purified HIV-1 integrase was added into each well; purchased
Procedure: Principle of the test: A synthetic oligonucleotide of 30 nt was used as the donor substrate. A synthetic oligonucleotide of 20 nt was used as the target substrate. A 96-well plate was covered by the donor substrate, and a purified HIV-1 integrase was added into each well. ELISA was performed to measure the product of the target DNA chain transfer. A biotin-labeled alkali phosphatase was used to visual the system. OD value was measured by an Enzyme-linked Detector. Add a sample into the reaction system for screening the inhibitor of the enzyme.
1. HIV-1 IN: commercially available.
2. Treatment of the samples: Before use, the sample was dissolved in water or DMSO at a suitable concentration, then serially diluted (5×), four serial dilutions per sample. The stock solutions of two samples were 100-fold diluted with DMSO, then 5-fold diluted, four serial dilutions per sample. Positive control: S-y, provided by Shanghai Organic Chemistry Institute.
3. The donor substrate and target substrate: synthesized by Shanghai Biological Engineering Company (Shanghai Shenggong).
4. Methods: The diluted sample was added into a 96-well plate covered by the donor substrate, and then added into the reaction buffer containing the genetic engineered target enzyme and biotin-target substrate, incubated in the optimal reaction conditions. A biotin-labeled alkali phosphatase was used to visual the system to determine the absorbance at 450 nm (OD450).

[3] = test system: mouse grafted uterine cervix cancer U14; experiment: Activity against mouse grafted uterine cervix cancer U14; format: in vivo, Kunming mice; conditions: for Tumor weight: X ± SD, n = 10; for inhibitory effect against mouse grafted uterine cervix cancer U14 (in words): all the three concentrations, i.v., female mice
Procedure: The experiments were performed according to “Guideline for New Drugs (Western medicines) in Pre-clinical Stages” issued by Bureau of Drug Policy & Administration of the People's Republic of China, and the relevant methods in “Methodology of Pharmaceutical Experiments”, Xu Shuyun et al. ed. 120 male Kunming mice weighting […] were allowed to grow 3 days. No abnormality was observed. The mice were routinely inoculated in oxter with mouse sarcoma S-180, and weighted 4 hrs. after inoculation. The mice were randomly divided into 12 groups, 10 mice/group. Group 1 was given 0.3 ml of physiological saline as negative control; Group 2 was given 5-FU as positive control, 0.6 mg/mouse; Group 3 was given hydroxycamptothecine as positive control, 0.02 mg/mouse. Groups 4, 5 and 6 were injected with 10% Compound 6, 0.4 ml/mouse, 0.2 ml/mouse, and 0.1 ml/mouse, respectively. Groups 7, 8 and 9 were injected with 10% Compound 8, 0.4 ml/mouse, 0.2 ml/mouse, and 0.1 ml/mouse, respectively. Groups 10, 11, and 12 were injected with 10% Compound 20, 0.4 ml/mouse, 0.2 ml/mouse, and 0.1 ml/mouse, respectively. The tested compounds were administered on the next day after inoculation, once a day on alternate days, 6 doses totally administered. On the next day after the end dose, the mice were weighed and sacrificed. After the tumor was excised, body weight and tumor weight were recorded. The tumor inhibition rate was calculated based on the following formula: [(average tumor weight of the control groups−average tumor weight of the experimental groups)/average tumor weight of the control groups]×100%. The data was processed statistically. The above experiments were repeated three times.
The experiments were identical with the experiments for activity against mouse grafted sarcoma S-180, except the following:
(1) the tumor cell line inoculated was mouse grafted uterine cervix cancer U14;
(2) all the mice were female.

[4] = test system: eight selected tumor cell lines; experiment: In vitro anti-tumor IC50, summary over the selected tumor cell lines; format: cell-based
Procedure: (1) Single cell suspension was seeded into 96-well plates (the cells was diluted in the PRMI-1640 minimum medium to 3×10^4 cells/ml, […] diluted cells/well). […] The experiments were performed in quadruplicate.
(2) The medium was removed. Solutions of the anti-tumor agents (50 compounds) were prepared in a freshly prepared medium at serial concentrations. […] of the solution was added into each well. Incubation was continued for 48 hours.
(3) 20 ug of 2 mg/ml MTT was added into each well, and incubated for 4 hours.
(4) The medium was removed from the well. The microplates were swiftly turned down to throw-off the medium. […] of DMSO was added into each well, and vortexed at room temperature for 10 minutes.
(5) OD value (λ=570 nm) was measured with an Enzyme-Linked Detector.
(6) The graph of cell vitality was plotted, and IC50 was calculated.

[5] = 50 μg/ml, Table 1, read-out: inhibition rate, Results (%) Hela
[6] = 50 μg/ml, Table 2 (repeated screening), read-out: inhibition rate, Results (%) Hela
[7] = initial concentration 100 μg/ml
[8] = 50 μg/ml, Table 3 (repeated screening), read-out: inhibition rate, Results (%) Hela
[9] = U14, first experiment, 10 mg/kg
[10] = U14, first experiment, 20 mg/kg
[11] = U14, first experiment, 40 mg/kg
[12] = U14, second experiment, 10 mg/kg
[13] = U14, second experiment, 20 mg/kg
[14] = U14, second experiment, 40 mg/kg
[15] = U14, third experiment, 10 mg/kg
[16] = U14, third experiment, 20 mg/kg
[17] = U14, third experiment, 40 mg/kg
[18] = 50 μg/ml, Table 3 (repeated screening)

`CC(C)C1CC23OC1(O)CC(=CBr)C2CCC3C` (stereo not drawn) [Compound 17, Curcumol monobromide] was tested, and the inhibition at 50 µg/mL [1, 5] was 91.6%, the inhibition at 50 µg/mL [1, 6] was 92.4% and the inhibition at 100 µg/mL [2, 7] was less than 50%.

Work on `C=C1CC2(OC(=O)C(C)C)OC3(CC2C(C)C)C(C)CCC13` (stereo not drawn) [Compound 3, Curcumol isobutyrate] yielded an inhibition at 50 µg/mL [1, 5] of 69.2%, an inhibition at 50 µg/mL [1, 6] of 70.2% and an IC50 [2] of 117 µM.

`C=C1CC2(OS(=O)(=O)O)OC3(CC2C(C)C)C(C)CCC13` (stereo not drawn) [Compound 20, Curcumol sulfonate] was tested, and the inhibition at 50 µg/mL [1, 5] was 94.2%, the inhibition at 50 µg/mL [1, 6] was 90.6% and the inhibition at 50 µg/mL [1, 8] was 92.5%. For the same compound, the IC50 [2] was 126 µM.

With `CC(C)C1CC23OC1(O)C/C(=C\Nc1ccc(O)cc1)C2CCC3C` (stereo not drawn) [Compound 6, Curcumol p-hydroxy aniline hydrochloride] the “inhibition rate, Results (%) Hela” value ([1]; 50 μg/ml, Table 1, hydrochloride) was 95.26%, the “inhibition rate, Results (%) Hela” value ([1]; 50 μg/ml, Table 2 (repeated screening), hydrochloride) was 95.26% and the inhibition at 50 µg/mL [1, 8] was 92.3%. The “Inhibition rate (%)” value [3, 9] was 37.3%, the “Tumor weight” value [3, 9] was 2.2 ± 0.37 g and the “Inhibition rate (%)” value [3, 10] was 65.0%. For the same compound, the “Tumor weight” value [3, 10] was 1.23 ± 0.29 g, the “Inhibition rate (%)” value [3, 11] was 72.6% and the “Tumor weight” value [3, 11] was 0.96 ± 0.31 g. For the same compound, the “Inhibition rate (%)” value [3, 12] was 32.3%, the “Tumor weight” value [3, 12] was 2.3 ± 0.37 g and the “Inhibition rate (%)” value [3, 13] was 64.7%. The “Tumor weight” value [3, 13] was 1.20 ± 0.29 g, the “Inhibition rate (%)” value [3, 14] was 73.5% and the “Tumor weight” value [3, 14] was 0.90 ± 0.31 g. For the same compound, the “Inhibition rate (%)” value [3, 15] was 35.9%, the “Tumor weight” value [3, 15] was 2.32 ± 0.37 g and the “Inhibition rate (%)” value [3, 16] was 63.5%. The “Tumor weight” value [3, 16] was 1.32 ± 0.29 g, the “Inhibition rate (%)” value [3, 17] was 72.1% and the “Tumor weight” value [3, 17] was 1.01 ± 0.31 g. The “inhibitory effect against mouse grafted uterine cervix cancer U14 (in words)” value [3] was “good inhibitory effect”, the “Average weight (g)-after administration” value ([3]; mouse, in vivo, 10 mg/kg) was 22.1 g and the “Average weight (g)-after administration” value ([3]; mouse, in vivo, 20 mg/kg) was 21.6 g. For the same compound, the “Average weight (g)-after administration” value ([3]; mouse, in vivo, 40 mg/kg) was 21.6 g and the “inhibitory effect to all the eight selected tumor cell lines (in words)” value [4] was “strong inhibitory effect”.

In the case of `C=C1CC2(OS(=O)(=O)[O-])OC3(CC2C(C)C)C(C)CCC13.[Na+]` (stereo not drawn) [Compound 21, Curcumol sodium sulfonate], the “inhibition rate, Results (%) Hela” value ([1]; 50 μg/ml, Table 1) is reported as 91.69%, the “inhibition rate, Results (%) Hela” value ([1]; 50 μg/ml, Table 2 (repeated screening)) is reported as 90.11% and the “inhibition rate, Results (%) Hela” value [1, 18] is reported as 91.67%. For the same compound, the “Average weight(g)-after administration” value [3, 9] was 22.1 g, the “Inhibition rate (%)” value [3, 9] was 52.1% and the “Tumor weight” value [3, 9] was 1.68 ± 0.29 g. The “Average weight(g)-after administration” value [3, 10] was 21.0 g, the “Inhibition rate (%)” value [3, 10] was 56.7% and the “Tumor weight” value [3, 10] was 1.52 ± 0.41 g. For the same compound, the “Average weight(g)-after administration” value [3, 11] was 21.1 g, the “Inhibition rate (%)” value [3, 11] was 71.8% and the “Tumor weight” value [3, 11] was 0.99 ± 0.31 g. The “Average weight(g)-after administration” value [3, 12] was 22.5 g, the “Inhibition rate (%)” value [3, 12] was 53.2% and the “Tumor weight” value [3, 12] was 1.59 ± 0.29 g. For the same compound, the “Average weight(g)-after administration” value [3, 13] was 21.1 g, the “Inhibition rate (%)” value [3, 13] was 57.1% and the “Tumor weight” value [3, 13] was 1.46 ± 0.41 g. The “Average weight(g)-after administration” value [3, 14] was 21.0 g, the “Inhibition rate (%)” value [3, 14] was 73.8% and the “Tumor weight” value [3, 14] was 0.89 ± 0.31 g. The “Average weight (g)-after administration” value [3, 15] was 22.0 g, the “Inhibition rate (%)” value [3, 15] was 54.7% and the “Tumor weight” value [3, 15] was 1.64 ± 0.29 g. The “Average weight (g)-after administration” value [3, 16] was 21.0 g, the “Inhibition rate (%)” value [3, 16] was 58.3% and the “Tumor weight” value [3, 16] was 1.51 ± 0.41 g. For the same compound, the “Average weight (g)-after administration” value [3, 17] was 20.1 g, the “Inhibition rate (%)” value [3, 17] was 73.7% and the “Tumor weight” value [3, 17] was 0.95 ± 0.31 g. The “inhibitory effect against mouse grafted uterine cervix cancer U14 (in words)” value [3] was “good inhibitory effect” and the IC50 [2, 7] was “— (indicates that the initial concentration of the sample had a inhibition rate of less than 50% against HIV-1 IN.)”.

Work on `CC(C)C1CC23OC1(O)CC(=CN1CCNCC1)C2CCC3C` (stereo not drawn) [Compound 7, Curcumol piperazine] yielded an inhibition at 50 µg/mL [1, 5] of 90.4%, an inhibition at 50 µg/mL [1, 6] of 89.3% and an inhibition at 50 µg/mL [1, 8] of 89.1%. The inhibition at 100 µg/mL [2, 7] was less than 50% and the “activity to Hela, U-937 and HL-60 cell lines (in words)” value ([4]; Hela and U-937, also U-937 and HL-60 cell lines) was “excellent activity”.

With `CC(C)C1CC23OC1(O)C/C(=C\Nc1ccc(O)cc1)C2CCC3C` (stereo not drawn) [Compound 5, Curcumol p-hydroxy aniline] the “inhibition rate, Results (%) Hela” value [1, 18] was 94.55%, the inhibition at 50 µg/mL [1, 6] was 92.3% and the inhibition at 50 µg/mL ([1]; read-out: inhibition rate, Results (%) Hela, 50 μg/ml, Table 1) was 94.4%. For the same compound, the inhibition at 100 µg/mL [2, 7] was less than 50% and the “inhibitory effect to all the eight selected tumor cell lines (in words)” value [4] was “strong inhibitory effect”.
